Earlier results in article PMC8791944, “GLUT3 inhibitor discovery through in silico ligand screening and in vivo validation in eukaryotic expression systems” (Scientific Reports, 2022).

Tested on: GLUT3
Conditions: read-out: KM of 2-deoxy-glucose for GLUT3; GLUT3 expressed in Xenopus laevis oocytes ref 12; cited from earlier work

SMILES: O=CC[C@@H](O)[C@H](O)[C@H](O)CO [2-deoxy-glucose, 2-deoxy-D-glucose]
- Km: ~1400 µM
